# In patent publication US4305951A, “Novel amino derivatives of 5-(2-hydroxystyryl)-isoxazole, their preparation and therapeutic formulations containing these compounds” (BASF Aktiengesellschaft, priority 1979, dated 1981):
# Entries after “also recorded” stand apart in the source; their conditions may differ.
# How the values were obtained:
# [1] = tested on: blood pressure in the carotid artery; assay: Hypotensive action on narcotized rats; assay type: in vivo, rat (Sprague-Dawley); conditions: for ED20: Rattus norvegicus, read-out: ED 20% (dose which lowers the mean carotid blood pressure by 20%)
# Protocol: To test the hypotensive action, the compounds are administered intravenously to male Sprague-Dawley rats (weight: 230-280 g) under urethane narcosis (1.78 g/kg administered intraperitineally).
# The blood pressure in the carotid artery is measured by means of a Statham transducer. The ED 20% is determined as the dose which lowers the mean carotid pressure by 20%.
# ^(2) Rats. Urethane narcosis. Intravenous administration. ED 20% =
# dose [in mg/kg] which lowers the blood pressure by 20%.
# [2] = in vivo; conditions: for LD50: ip
# Description: Intraperitoneal administration.
# [3] = tested on: isoproterenol-induced tachycardia; assay: β-Sympatholytic action: inhibition of isoproterenol-induced tachycardia in pithed rats; conditions: for ED50: Rattus norvegicus, read-out: ED 50% (dose which inhibits the isoproterenol-induced increase in pulse rate by 50%)
# [4] = urethane narcosis, intravenous administration
SMILES,"ED20 [1, 4]","Q: lethal dose as multiple of the β-sympatholytically effective dose ([2]; mouse, in vivo)","selectivity ratio ([2]; mouse, in vivo)","LD50 ([2]; mouse, in vivo)",ED50 ([3]; iv),"β-sympatholytic activity compared with propranolol (in words) ([3]; pithed rats, intravenous)","R.A. = relative activity (β-sympatholytic) ([3]; rat, in vivo, iv)","ED 20% (dose which lowers the mean carotid blood pressure by 20%) [1, 4]",Q: lethal dose as multiple of the β-sympatholytically effective dose ([2]; LD 50 mice i.p. / ED 50% pithed rats i.v.),"increase of blood pressure ([1]; 2.15 mg/kg intravenous, urethane narcosis)","lowering of blood pressure ([1]; 4.64 mg/kg intravenous, urethane narcosis, average)","animals that died ([1]; 10 mg/kg intravenous, urethane narcosis)","hypotensive action (in words) ([1]; acute test, intravenous)","R.A. = relative activity (β-sympatholytic) ([3]; Propranolol = 1.00, pithed rats, intravenous)"
"Cc1cc(/C=C/c2ccccc2OCC(O)CNC(C)CCc2ccc(O)cc2)on1 (centres unmarked) [Example 3, 3-methyl-5-[2-[2-hydroxy-3-(3-(4-hydroxyphenyl)-1-methylpropylamino)-propoxy]-styryl]-isoxazole]",0.49 mg/kg,"24,600",24600,261 mg/kg,0.0106 mg/kg,corresponds approximately to that of propranolol,1.20,–,–,–,–,–,–,–
"COc1ccc(CCNCC(O)COc2ccccc2/C=C/c2cc(C)no2)cc1OC (centres unmarked) [Example 4, 3-methyl-5-[2-[2-hydroxy-3-(2-(3,4-dimethoxyphenyl)-1-ethylamino)-propoxy]-styryl]-isoxazole]",0.7 mg/kg,–,29900,642 mg/kg,0.0215 mg/kg,corresponds approximately to that of propranolol,0.59,0.70 mg/kg,"29,900",–,–,–,–,–
"CC(C)NCC(O)COc1cccc2ccccc12 (centres unmarked) [Propranolol, propranolol]",–,–,–,–,–,–,–,–,–,11%,36%,2 out of 6,"does not have a hypotensive effect in acute test conditions; also recorded: up to doses of 2.15 mg/kg, does not lower the blood pressure",1.00
